Source: PMC12904088, “Development of Dimethylsulfonium Probes for Broad Profiling of Methyllysine Reader Proteins” (Advanced Science, 2025)
pKd: −log10 of the molar value. Square brackets hold non-standard residues; d marks the D form. Ends that are not written are not given here. Lys(Me3) = C[N+](C)(C)CCCC[C@H](N)C(=O)O

How the values were obtained:
[1] = molecular target: SPIN1; details: cited from earlier work
Source text: (§1) To verify this approach, we selected MS31, a potent and selective fragment‐like inhibitor that primarily targets the H3K4me3 reader SPIN1 by binding to its Tudor2 domain.^[ [64], [65], [66] ^] […] We used peptide 12, which replaced desthiobiotin of peptide 5 with biotin to enhance binding affinity to streptavidin beads, for a prot ...

[2] = test system: SPIN2B; details: cited from earlier work
Source text: as §1

[3] = test system: broad panel of other epigenetic readers and writers; details: cited from earlier work
Source text: as §1

[4] = test system: SPIN4; details: cited from earlier work
Source text: as §1

[5] = test system: SPIN2B; test: Western blot: inhibition of crosslinking of probe 12 by MS31; assay type: biochemical, human; details: 2.5 mM probe 12, 10 µM SPIN2B, 200 µM MS31, 0.5% DMSO, UV 30 min, streptavidin-HRP blot; Figure 5D
Method: BPTF, CBX1, and SPIN1 were expressed and purified as previously reported.^[ [54], [59] ^] Full‐length SPIN2B (residues 1–258) from human was cloned into the pET‐28a vector with an N‐terminal 6×His‐SUMO‐tag. It was over‐expressed in Rosetta (DE3) Escherichia coli cells by induction of 0.25 mM isopropyl β‐D‐thiogalactoside (IPTG) at 16 °C overnight when OD600 reached 0.6–0.8 in the LB medium. The harvested cells were suspended in lysis buffer (20 mM Tris, 150 mM NaCl, 0.2 mM PMSF, pH 7.5) and lysed by sonication; then, the cell lysate was centrifuged to remove the insoluble cell debris. The clarified supernatant was loaded on nickel resin equilibrated in lysis buffer. Afterward, the protein‐bound resin was washed sequentially with lysis buffer, high salt buffer (20 mM Tris, 500 mM NaCl, pH 7.5), and 20 mM imidazole buffer (20 mM Tris, 150 mM NaCl, 20 mM imidazole, pH 7.5). The target proteins were eluted by 200 mM imidazole buffer (20 mM Tris, 150 mM NaCl, 200 mM imidazole, pH 7.5), followed by the solution exchanged to storage buffer (20 mM Tris, 150 mM NaCl, pH 7.5). The product was concentrated, snap‐frozen, and stored at −80°C. […]
For SPIN1 and SPIN2B found in the volcano plot, 5 sets of samples were designed, respectively. […] Finally, the membranes were washed with 1×TBST buffer three times, and the protein bands were detected by enhanced chemiluminescence reagent.

[6] = test system: HeLa cell nuclei proteins; test: Proteomic experiment for inhibitor evaluation: probe 12 with MS31 competition; assay type: cell-based, Homo sapiens
Method: HeLa cells (1.8 × 10^7) were harvested, washed with pre‐cooled phosphate buffer saline (PBS), and lysed in hypotonic buffer (10 mM Tris, 15 mM NaCl, 1.5 mM MgCl2, 0.2 mM PMSF, pH 7.5) on ice with regular inversion for 10–15 min. After centrifugation at 200 g for 5 min at 4°C, the pellet was resuspended in hypotonic buffer and homogenized with three strokes of a loose pestle Dounce homogenizer. The intact nuclei were washed with a hypotonic buffer and collected by centrifugation. Then, the nuclei were resuspended in crosslink buffer (100 mM HEPES, 150 mM KCl, 1.5 mM MgCl2, 0.2 mM PMSF, pH 7.5) and divided into two groups (Group A and Group B), each of which contained three parallel samples. The general probe was added to Group A. The same amount of the general probe and extra competing peptides was added to Group B. These samples were transferred to a 24‐well plate, incubated on ice for 10 min, and irradiated under 313 nm UV for 20 min on ice. Next, the nuclei were washed with crosslinking buffer three times. […]
Label‐free quantification was performed with Proteome Discoverer 2.5, which was used for database searches against the Homo sapiens (Human) proteome database retrieved from UniProtKB (accession UP000005640). […]

[7] = test system: PRC2; details: cited from earlier work
Source text: (§2) Reader proteins, which specifically recognize methylation modifications at specific sites, are crucial for the biological functions of lysine methylation (Figure 1A).^[ [11], [12], [13], [14] ^] For example, BPTF is a reader of H3K4me3 that is in the NURF complex for RNA polymerase II activities.^[ [15] ^] CBX1 is a reader of H3K9me3 that promotes liquid‐liquid phase separation for the formation of heterochromatin. As a result, the local genes in chromatin are condensed and not accessible to transcription.^[ [16], [17], [18] ^] In addition, readers also play important roles in tumorigenesis. F ...

[8] = test system: tumor growth; details: mouse models; cited from earlier work
Source text: as §2

[9] = test system: reader proteins (BPTF, CBX1); test: In vitro crosslinking validation of general competition peptide; assay type: biochemical; details: 2.5 mM general probe, 7.5 mM peptide 13, 10 µM reader, pH 7.5, UV 30 min; Figure 6B
Method: Probes were added to the crosslinking buffer (100 mM HEPES, pH 7.5), followed by the addition of reader proteins. The mixture was transferred to 96‐well plates and incubated on ice for 10 min. After UV irradiation on ice at an energy of 720 mJ cm^−2, the samples were analyzed by UPLC‐Q‐TOF‐MS. The analytical yield was calculated based on the mass peak areas as previously reported.^[ [55] ^] The yield is calculated as the peak area of the desired product divided by the sum of the peak areas of the crosslinking products and the starting material, multiplied by 100%. For crosslinking readers with general probes: The mixture of 5 mM general probes and 10 µM reader proteins (BPTF, CBX1, CDYL2) was crosslinked by the General procedure for crosslinking for 30 min. For competition assays, the mixture of 2.5 mM general probes, 100 µM H3K4me3 (1‐15) or H3K9me3 (1‐15) peptide or 7.5 mM […]me3GG, 10 µM reader proteins (BPTF, CBX1) was crosslinked by the General procedure for crosslinking for 20 min (H3K4me3 or H3K9me3 for competition) or 30 min ([…]me3GG for competition). For Kinetics of reader crosslinking: The mixture of 0.625/1.25/2.5/5/10 mM general probe and 10 µM reader proteins was crosslinked by the General procedure for crosslinking for 20 min. […]

## COc1c(CN)cc(CN)cc1OCCCN1Cc2ccccc2C1 [MS31]
[1]
  pKd: 7.04
[2]
  Binding affinity (in words): moderate binding affinity
[3]
  Selectivity (in words): high selectivity over a broad panel of other epigenetic readers and writers
[4]
  Binding affinity (in words): moderate binding affinity
[5]
  Inhibition of crosslinking between SPIN2B and probe 12: can be inhibited by MS31
[6]; 2.5 mM probe 12 vs + 200 µM MS31, 313 nm UV 20 min, Log2(Fold Change) ≥0.5, p ≤ 0.05, n = 3
  Proteins significantly enriched (MS31 competition): 21 proteins
[6]; 2.5 mM probe 12 vs + 200 µM MS31, Log2(Fold Change) ≥0.5, p ≤ 0.05, n = 3
  Known MS31 targets identified among enriched proteins: the expected primary target SPIN1 was identified, along with two other SPIN family members, SPIN4 and SPIN2B

## CS(=O)(=O)c1ccc(-c2cnc(NCc3ccco3)n3cnnc23)cc1 [EED226]
[7]
  PRC2 activity inhibition (in words): effectively inhibits PRC2 activity
[8]
  Tumor growth suppression (in words): suppresses tumor growth in mouse models

## RKGGGGGG[Lys(Me3)]GG [peptide 13]
[9]
  Competition of general probe crosslinking by peptide 13: three equivalents of the peptide were sufficient to achieve complete competition
